According to PubChem BioAssay (NCI):
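Results reflect a 48-hour exposure of cells in 96-well plates to compound at five concentrations. TGI: concentration producing complete growth inhibition.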

How the values were obtained:
Test in all cases: growth of human tumour cells (NCI), 48 h
DMS 273 small cell lung = system: DMS 273 small cell lung
LOX IMVI melanoma = system: LOX IMVI melanoma
NCI-H23 lung = system: NCI-H23 lung
HCT-116 colon = system: HCT-116 colon
SK-MEL-28 melanoma = system: SK-MEL-28 melanoma
CAKI-1 renal = system: CAKI-1 renal
SK-MEL-2 melanoma = system: SK-MEL-2 melanoma
OVCAR-4 ovarian = system: OVCAR-4 ovarian
SK-OV-3 ovarian = system: SK-OV-3 ovarian
SF-539 CNS = system: SF-539 CNS
UO-31 renal = system: UO-31 renal
HOP-92 NSCLC = system: HOP-92 NSCLC
SF-268 CNS = system: SF-268 CNS
NCI-H522 lung = system: NCI-H522 lung
HCT-15 colon = system: HCT-15 colon
HL-60(TB) leukemia = system: HL-60(TB) leukemia
K-562 leukemia = system: K-562 leukemia
786-0 renal = system: 786-0 renal
U251 CNS = system: U251 CNS
UACC-62 melanoma = system: UACC-62 melanoma
HCC-2998 colon = system: HCC-2998 colon
A549 NSCLC = system: A549 NSCLC
RPMI-8226 leukemia = system: RPMI-8226 leukemia
OVCAR-3 ovarian = system: OVCAR-3 ovarian
MALME-3M melanoma = system: MALME-3M melanoma
SK-MEL-5 melanoma = system: SK-MEL-5 melanoma
M14 melanoma = system: M14 melanoma
RXF-631 renal = system: RXF-631 renal
SNB-75 CNS = system: SNB-75 CNS
DLD-1 colon = system: DLD-1 colon
SN12C renal = system: SN12C renal
TK-10 renal = system: TK-10 renal
LXFL 529 NSCLC = system: LXFL 529 NSCLC
M19-MEL melanoma = system: M19-MEL melanoma
COLO 205 colon = system: COLO 205 colon
IGROV1 ovarian = system: IGROV1 ovarian
MOLT-4 leukemia = system: MOLT-4 leukemia
OVCAR-8 ovarian = system: OVCAR-8 ovarian
SNB-78 CNS = system: SNB-78 CNS
NCI-H226 lung = system: NCI-H226 lung
NCI-H460 lung = system: NCI-H460 lung
HOP-62 NSCLC = system: HOP-62 NSCLC
SNB-19 CNS = system: SNB-19 CNS
SW-620 colon = system: SW-620 colon
XF 498 CNS = system: XF 498 CNS
SF-295 CNS = system: SF-295 CNS
CCRF-CEM leukemia = system: CCRF-CEM leukemia
ACHN renal = system: ACHN renal
KM12 colon = system: KM12 colon
KM20L2 colon = system: KM20L2 colon
RXF 393 renal = system: RXF 393 renal
OVCAR-5 ovarian = system: OVCAR-5 ovarian
DMS 114 small cell lung = system: DMS 114 small cell lung
UACC-257 melanoma = system: UACC-257 melanoma
HT29 colon = system: HT29 colon
A498 renal = system: A498 renal
EKVX NSCLC = system: EKVX NSCLC
HOP-18 NSCLC = system: HOP-18 NSCLC

Measured: TGI

CCc1cccc(C)c1NC(=O)CCc1nnc2s/c(=C\c3cccc4ccccc34)c(=O)n12
not listed: EKVX NSCLC | HOP-18 NSCLC
> 100 µM: all other assays above

C#CCNC(=O)ON1C(=O)CCC1=O
not listed: CAKI-1 renal | HOP-92 NSCLC | HCC-2998 colon | SK-MEL-5 melanoma | M14 melanoma | NCI-H226 lung | XF 498 CNS | DMS 114 small cell lung
> 100 µM: all other assays above
